Laboratory results published in US7678395B2, “Stimulation of hair growth by isoginkgetin” (Osteoscreen, Inc., priority 2003, dated 2010).
Where a SMILES comes first, the peptide text is derived from it. The star is where a group is joined. Cbz = O=C(OCc1ccccc1)*; OtBu = CC(C)(C)O*

Key:
[1] = molecular target: T1, 20S proteasome (Mus musculus, UniProt O55234); assay: Proteasome inhibition assay, compounds added directly to 20S proteasome preparation (LLVY-AMC cleavage); format: biochemical; conditions: 20S proteasome preparations from packed whole blood of mice, FIG. 2A
T1 construct: 20S proteasome preparations from packed whole blood of mice; from tissue; host or cells: packed whole blood of mice (EDTA lysate supernatant)
Method: If packed whole blood is used as a source for proteasomes, 1 ml blood collected in heparinized microtainer tubes is diluted 1:1 (v/v) with saline and centrifuged at 500×g (Sorvall RT 6000D, rotor H-1000B at 1500 rpm) for 5 min at room temperature. The supernatant is removed and the PWB pellet resuspended in 1 ml PBS and microcentrifuged at 6600×g (Eppendorf 5415C at 7000 rpm) for 10 min at room temperature. The supernatant is removed and the PWB pellet is then frozen at −70° C. prior to proteasome analysis.
To prepare the proteasomes, WBC or RBC or PWB 1:1 (v/v) are lysed using 5 mM EDTA, pH 8.0 for 30 min and centrifuged at 15,000×g (Eppendorf 5415C at 14,000 rpm) for 10 min at room temperature. The supernatant containing proteasomes is placed on ice and the protein concentration is determined. […]
(§1) For the assay, 50 μl sample—i.e., 20 proteasome; or standard; or ˜50 μg/μl WBC; or ˜500 μg/μl RBC or ˜1000 μg/μl PWB samples some containing test compounds is added to 50 μl substrate buffer (20 mM HEPES, 0.5 mM EDTA, 0.05% SDS, and 120 μM LLVY-AMC; pH 8.0) in a 96-well black fluorescence plate. The reaction is measured with a fluorescence spectrophotometer (excitation max.: 380 nm; emission max.: 440 nm, and velocity of reaction determined. As shown, the substrate is Leu-Leu-Val-Tyr-AMC. AMC is amido-4-methylcoumarin. […]

[2] = molecular target: T2, proteasomes of red blood cells (Mus musculus, UniProt O55234); assay: Proteasome inhibition assay, red blood cells treated with compounds, then proteasomes isolated and protease activity assessed; format: cell-based; conditions: red blood cells treated first, then proteasomes isolated; OSA compared with isoginkgetin; FIG. 2B
T2 construct: endogenous in cells; host or cells: red blood cells
Method: If RBC are used, the RBC pellet obtained in the process of obtaining WBC described above is recovered and washed with 3 ml PBS, then centrifuged at 500×g (Sorvall RT 6000D, rotor H-1000B at 1500 rpm) for 5 min at room temperature. The supernatant is removed and the RBC pellet resuspended in 1 ml PBS and microcentrifuged at 6600×g (Eppendorf 5415C at 7000 rpm) for 10 min at room temperature. The supernatant is again removed and the RBC pellet is then frozen at −70° C. prior to proteasome analysis.
To prepare the proteasomes, WBC or RBC or PWB 1:1 (v/v) are lysed using 5 mM EDTA, pH 8.0 for 30 min and centrifuged at 15,000×g (Eppendorf 5415C at 14,000 rpm) for 10 min at room temperature. The supernatant containing proteasomes is placed on ice and the protein concentration is determined.
as §1

[3] = tested on: C57 male black mice; assay: Stimulation of hair growth on shaved dorsal trunk, topical application; format: in vivo; conditions: 5 days, 1% OSA (100 μl) or 10% isoginkgetin (50 μl), after 17 days and 26 days, FIGS. 3A and 3B
Method: C57 male black mice, 8 weeks old, were acclimated for 7 days in individual cages and fed standard diets and water ad libitum. The mice were anesthetized prior to manipulation. The dorsal trunk of each mouse was shaved and then treated topically starting the following day with a 1.0% solution of OSA (100 μl) which was applied for each of 5 days. A similar protocol was followed using 50 μl solution of isoginkgetin at percentages of 1, 5 and 10% wt/wt. The progression of hair growth is monitored visually and photographed.
FIGS. 3A and 3B show the results for 1% OSA or 10% isoginkgetin after 17 days and 26 days respectively.

inhibition of the Vmax of the proteolytic cleavage of the LLVY-AMC substrate [1]: similarly inhibit the Vmax
proteasome inhibition when red blood cells are treated with the compounds [2]: more effective
Structure (SMILES): CC[C@H](C)[C@H](NC(=O)OCc1ccccc1)C(=O)N[C@@H](CCC(=O)OC(C)(C)C)C(=O)N[C@@H](C)C(=O)N[C@H](C=O)CC(C)C [OSA] (Cbz-IE(OtBu)AL-aldehyde)
growth of hair in the dorsal area as compared to control [3]: stimulate the growth of hair
